Source: patent US20160176924A1, “MODIFIED PEPTIDES AS POTENT INHIBITORS OF THE PSD-95/NMDA RECEPTOR INTERACTION” (priority 2008, published 2016)
Where “and” joins values, the source holds several entries; their conditions need not be identical. Identical values can stand only once. Ends that are not written are not given here.

How the values were obtained:
[1] = target: T1, PDZ1-2 of PSD-95 (Homo sapiens, UniProt P78352); experiment: Isothermal titration calorimetry (ITC); type: binding; details: for Kd: 25° C., PBS pH 7.4, mean ± SEM, read-out: ITC Kd PDZ12
T1 construct: PDZ1-2 (residues 61-249) tandem; made in house; host or cells: E. coli BL21-DE3 pLysS
Excerpt: This technique (Pierce, M. et al., 1999., Methods, p. 213-221) provides an exact determination of the affinity of a ligand for its target protein, as well as measuring the thermodynamic properties of the interaction, including enthalpy (ΔH), entropy (ΔS) and free energy (ΔG) together with the stoichiometric relationship of ligand binding. In this method, un-labeled ligand is titrated into a solution of un-labeled PDZ protein located in the calorimeter. Heat generated upon protein recognition is measured (ΔH) during the titration of the ligand and the PDZ protein until saturation is achieved, and the heat-exchange upon further ligand addition is negligible. Based on the amount of ligand needed to achieve saturation an affinity constant (Kd) is calculated and in addition ΔH, ΔS, ΔG and stoichiometry are determined.
Calorimetry experiments were performed on a microcalorimeter (Microcal, MA, USA). The ligands were titrated directly into the PDZ solution. All ligands and PDZ proteins were solubilized in PBS buffer (137 mM NaCl, 2.7 mM KCl, 10 mM Na2HPO4, 2 mM KH2PO4, pH 7.4) and when necessary pH was adjusted to 7.4 within 0.02 pH units after solubilization. The concentration of peptide and PDZ in solution was quantified by amino acid analysis. The calorimetry experiments were conducted at 25° C., where the PDZ1-2 concentration was generally adjusted to about 20 μM (200 μL in calorimeter) and the ligand concentration to between 200-2500 μM (injected to the protein as 20×2 μL). Experiments were designed so that c-value (c-value=Ka*[Protein]*n; where Ka is the affinity association constant, [Protein] means protein concentration, and n is the stoichiometry of the reaction) was within 1-1000. The analysed solution was stirred at 1000 rpm, with a reference power of 6 μcal/s. Heats of dilution were initially determined by titrating the ligand into buffer and subtracting these baseline values from the observed “heat values”. The data from each titration experiment were collected by ORIGIN 7.0 (Microcal, MA, USA), which was also used to determine the thermodynamic properties of ligand binding using non-linear least-squares fitting assuming a single-site model.

[2] = target: T2, PDZ1-2 tandem of PSD-95 (Homo sapiens, UniProt P78352); experiment: FP heterologous competition binding assay; details: mean ± SEM
T2 construct: PDZ1-2 (residues 61-249) tandem; made in house; host or cells: E. coli BL21-DE3 pLysS
Excerpt: (§1) Determined IC50 values may be converted to Ki values.^5 Suitable fluorophores include either 5-FAM or Cy5, which may be coupled to a tripeptide (KSG or CSG) linker attached to the N-terminus of the undecapeptide, to give 5-FAM-NR2B, Cy5-NR2B, 5-FAM-CRIPT and Cy5-CRIPT. The 5-FAM fluorophore may be attached to the undecapeptides by coupling with HATU. The Cy5 fluorophore may be conjugated to the undecapeptides by coupling Cy5-maleimide to the cysteine side chain of the tripeptide sequence CSG attached to the N-terminus of the peptide, as detailed in the Methodology section.
(§2) To measure the affinities between non-fluorescent peptides and PDZ domains, heterologous competition bindings assay were performed. This was done by adding increasing concentrations of peptide to a fixed concentration of Cy5-NR2B, 5-FAM-NR2B, Cy5-CRIPT or 5-FAM-CRIPT (50 nM) and PDZ (20 μM for PDZ1, 3 μM for PDZ2 and 1-2 and 5 μM for PDZ3) in the same TBS buffer and conditions as described above. FP values were then fitted to the general equation: Y=Bottom+(Top−Bottom)/[1[…](10̂^X-logIC50)], where X is the logarithmic value of peptide concentration. Hereby the IC50 value was obtained, which is used to calculate the theoretical competitive inhibition constant, Ki.^5
(§3) A convenient and reliable way to examine interactions between peptide analogues and PDZ domains is by using a fluorescence polarization (FP) assay. The three PDZ domains, PDZ1-3, of PSD-95 were expressed individually as set out above, while PDZ1-2 was also expressed as a tandem construct. […] IC50 values were then converted to Ki values.^5

[3] = Human blood plasma stability assay; type: in vitro ADME; details: for half-life at […]: human, plasma, Blood plasma half life (T1/2)
Experimental: In this assay, the half-life (T1/2) of a compound in blood plasma is measured in vitro, whereby its susceptibility to degradation by proteases, peptidases and general plasma contents is quantified.
Compounds of interest were dissolved in human blood plasma (270 μl; 3H Biomedical, Sweden, cat no 1300-1-P50) to a concentration of 0.25 mM (30 μL of 2.5 mM) and incubated at 37° C. Aliquots (30 μl) were removed at various time intervals (0, 5, 10, 20, 40, 80, 160, 320, 960, 1280, 2550, 4560 and 7240 min) and quenched with 60 μL trichloroacetic acid (aq., 5%). The aliquots were vortexed, and incubated for at least 15 min, at 4° C. prior to centrifugation at 18,000 g for 2 min and the supernatant was analyzed by RP-HPLC to quantify the remaining compound (absorbance at 218 nm).

[4] = target: T3, PDZ2 of PSD-95 (Homo sapiens, UniProt P78352); experiment: FP heterologous competition binding assay; details: for Ki: FP competition, mean ± SEM, NA = no activity/affinity
T3 construct: PDZ2 (residues 155-249); made in house; host or cells: E. coli BL21-DE3 pLysS
Excerpt: as §1, §2, §3

[5] = system: cultured cortical neurons; experiment: Neuronal NMDA excitotoxicity assay (LDH release); type: cell-based, rat; details: 500 nM
Excerpt: When cultured cortical neurons are exposed to high concentrations of NMDA, an excitoxic cascade is initiated, which leads to cellular damage and ultimately neuronal cell death. Consequently, the cell membranes are destroyed, and cytoplasmic enzymes are released into the cell surroundings. The extent of this neuronal cell death can be quantified by measuring the release of cytoplasmic lactate dehydrogenase (LDH) enzyme into the cell medium. The compounds of interest and control compound (3) are investigated with respect to their abilities to attenuate NMDA-mediated toxicity. Compounds that are active in this assay are both membrane permeable, and can prevent ex vivo excitotoxicity, which are important properties for therapeutics towards excitotoxicity mediated diseases.
Cortical neurons were surgically removed from rats (e.g. E21) and then cultured for 7-9 days in vitro in Neurobasal A medium with B-27 supplement (each supplied by Invitrogen), further supplemented with 1 mM glutamine, 50 units/ml penicillin, and 50 μg/ml streptomycin. The following steps were then performed:
1. Samples of the cultured cortical neurons were removed from the Neurobasal-A based culture medium, at various time points prior to exposure to compound, and placed into “transfection medium” ([…]; as defined by Bading et al (1993) Science 260, 181-186) comprising: 10% modified Minimum Essential Medium (supplied by Invitrogen; product no: 21090022; containing Earles salt, but no L-glutamine), 90% Salt-Glucose-Glycine (SGG) medium: (114 mM NaCl, 0.219% NaHCO3, 5.292 mM KCL, 1 mM MgCl2, 2 mM CaCl2, 10 mM HEPES, 1 mM Glycine, 30 mM glucose, 0.5 mM sodium pyruvate, 0.1% Phenol Red), insulin-transferrin-selenite supplement (supplied by Sigma: 7.5 μg insulin/ml, 7.5 μg transferring/ml and 7.5 ng sodium selenite/ml); with a final osmolarity of 325 mosm/l. All subsequent steps were performed in this TM medium. 2. Samples of neurons are exposed to an NMDAR/PSD-95 inhibitor of the invention (compounds 40, 52-90) at a final concentration of between 0.05-50 μM for a period of between 0.5 to 1.5 hours. […] 3. Each sample of neurons was washed at least one time in TM medium to remove the NMDAR/PSD-95 inhibitor, and placed in TM medium. 4. After various periods of time, the samples of neurons were exposed to NMDA at a concentration of between 10-100 μM for a period of 0.5 to 1.5 hours, preferably 1 hour, after which the samples were again placed in TM medium for 24 hours. 5. LDH in the cell medium was quantified using commercial available kits (e.g. Promega Biotech AB, cat no G1780).

[6] = target: T4, PDZ1 of PSD-95 (Homo sapiens, UniProt P78352); experiment: FP heterologous competition binding assay; details: for Ki: FP competition, mean ± SEM, NA = no activity/affinity
T4 construct: PSD-95 PDZ1 (residues 61-151); made in house; host or cells: E. coli BL21-DE3 pLysS
Excerpt: as §1, §2, §3

[7] = target: T5, PDZ3 of PSD-95 (Homo sapiens, UniProt P78352); experiment: FP heterologous competition binding assay; details: for Ki: FP competition, mean ± SEM, NA = no activity/affinity
T5 construct: PDZ3 (residues 309-401); made in house; host or cells: E. coli BL21-DE3 pLysS
Excerpt: as §1, §2, §3

Compound | Ki [2] | Ki [4] | effect on NMDA-mediated excitotoxicity, in words [5] | Ki [6] | Ki [7] | also measured
CC[C@H](C)[C@H](NC(=O)CCOCCOCCOCCOCCOCCC(=O)N[C@H](C(=O)N[C@@H](CCC(=O)O)C(=O)N[C@@H](CO)C(=O)N[C@@H](CC(=O)O)C(=O)N[C@H](C(=O)O)C(C)C)[C@@H](C)CC)C(=O)N[C@@H](CCC(=O)O)C(=O)N[C@@H](CO)C(=O)N[C@@H](CC(=O)O)C(=O)N[C@H](C(=O)O)C(C)C [(IESDV)2PEG4 (78), (IESDV)2PEG4] | ~0.1 µM | – | – | – | – | Kd [1]: 0.032 ± 0.01 µM; degradation in human blood plasma, in words [3]: no significant degradation could be detected over a time period of 6 days; half-life at […] [3]: > 133 h
CC[C@H](C)[C@H](NC(=O)CCOCCOCCOCCOCCOCCC(=O)N[C@H](C(=O)N[C@@H](CCC(=O)O)C(=O)N[C@H](C(=O)N[C@@H](C)C(=O)N[C@H](C(=O)O)C(C)C)[C@@H](C)O)[C@@H](C)CC)C(=O)N[C@@H](CCC(=O)O)C(=O)N[C@H](C(=O)N[C@@H](C)C(=O)N[C@H](C(=O)O)C(C)C)[C@@H](C)O [(IETAV)2PEG4 (83), (IETAV)2PEG4] | ~0.1 µM | 1.1 ± 0.07 µM | – | – | – | fold greater affinity towards PDZ1-2 compared to Tat-NR2B (3) (WT or Tat-NR2B) [1]: about 1000 fold; Kd [1]: 0.011 ± 0.01 µM; fold increase in ligand affinity by dimerization compared to monomeric IETAV (82) ([1]; PDZ1-2): 176 fold; half-life at […] [3]: 6.82 h
CC(C)[C@H](NC(=O)[C@H](C)NC(=O)[C@@H](NC(=O)[C@H](C)NCCC1CCCCC1)[C@@H](C)O)C(=O)O [ATAV (73)] | – | – | inhibit neuronal excitotoxicity, as efficiently as the clinical candidate Tat-N2B (3) | 8.9 ± 1 µM | – | –
CC(C)C[C@H](NC(=O)CNC(=O)[C@H](CO)NC(=O)[C@@H](N)CCCCN)C(=O)N[C@@H](CC(=O)O)C(=O)N[C@H](C(=O)N[C@@H](CCCCN)C(=O)N[C@@H](CC(N)=O)C(=O)N[C@@H](Cc1ccc(O)cc1)C(=O)N[C@@H](CCCCN)C(=O)N[C@@H](CCC(N)=O)C(=O)N[C@H](C(=O)N[C@@H](CO)C(=O)N[C@H](C(=O)O)C(C)C)[C@@H](C)O)[C@@H](C)O [CRIPT (2), reference compound] | 45 ± 4.1 µM | 25 ± 1.6 µM | – | 97 ± 18 µM | 2.1 ± 0.15 µM | –
CC(C)[C@H](NC(=O)[C@H](C)NC(=O)[C@@H](NC(=O)[C@H](CCC(=O)O)NCCC1CCCCC1)C(C)O)C(=O)O (stereo partly shown) [Compound 56, N-Cyclohexylethyl-ETAV] | – | 0.45 ± 0.13 µM | inhibit neuronal excitotoxicity, as efficiently as the clinical candidate Tat-N2B (3) | 1 µM and 0.94 µM | 11 ± 0.43 µM | fold increase in affinity (more potent) compared to NR2B peptide (1), PDZ1 [6]: ca. 19 fold; selectivity towards PDZ1 relatively to PDZ3 [6]: 10 fold; fold increase in affinity compared to NR2B peptide (1), PDZ2 [4]: 9 fold; selectivity towards PDZ2 relatively to PDZ3 [4]: 20 fold
CC(C)[C@H](NC(=O)[C@H](C)NC(=O)[C@@H](NC(=O)[C@H](CCC(=O)O)NCCc1ccc2ccccc2c1)C(C)O)C(=O)O (stereo partly shown) [Compound 63, N-(Naphtalene-2-yl)ethyl-ETAV] | – | – | inhibit neuronal excitotoxicity, as efficiently as the clinical candidate Tat-N2B (3) | 1 ± 0.33 µM | 10 ± 0.22 µM | –
CC(C)[C@H](NC(=O)[C@H](C)NC(=O)[C@@H](NC(=O)[C@@H](N)CCC(=O)O)[C@@H](C)O)C(=O)O [ETAV (51), ETAV] | – | 22 ± 0.92 µM | – | 29 ± 1.6 µM | 260 ± 20 µM | –
KSGYEKLSSIESDV-OH [NR2B (1), reference compound] | 7 ± 0.19 µM | 4.1 ± 0.17 µM | – | 18 ± 0.92 µM | – | affinity to PDZ3, in words ([7]; FP assay): no binding
